The structures appear in SMILES notation.

Consider 6 molecules from patent US20240018110A1, “RADIOLABELED COMPOUNDS TARGETING THE PROSTATE-SPECIFIC MEMBRANE ANTIGEN” (THE UNIVERSITY OF BRITISH COLUMBIA, priority 2020, published 2024).

The test system of the series is LNCaP xenograft. Briefly: Biodistribution of 68Ga-labeled compounds in mice bearing LNCaP xenograft. In kind it is in vivo. Conditions: 1 h p.i. On the procedure:
All chemicals and solvents were obtained from commercial sources, and used without further purification. PSMA-targeted peptides were synthesized using a solid phase approach on an AAPPTec (Louisville, KY) Endeavor 90 peptide synthesizer. Purification of peptides was performed on an Agilent 1260 Infinity II Preparative System equipped with a model 1260 Infinity II preparative binary pump, a model 1260 Infinity variable wavelength detector (set at 220 nm), and a 1290 Infinity II preparative open-bed fraction collector. The HPLC column used was a preparative column (Gemini, NX—C18, 5 μ, 50×30 mm) purchased from Phenomenex. The collected HPLC eluates containing the desired peptide were lyophilized using a Labconco (Kansas City, MO) FreeZone 4.5 Plus freeze-drier. Mass analyses were performed using a Waters LC-MS system with an ESI ion source. C18 Sep-Pak cartridges (1 cm^3, 50 mg) were obtained from Waters (Milford, MA). ^68Ga was eluted from an iThemba Labs (Somerset West, South Africa) generator. Radioactivity of ^68Ga-labeled peptides was measured using a Capintec (Ramsey, NJ) CRC®-25R/W dose calibrator, and the radioactivity of mouse tissues collected from biodistribution studies were counted using a Perkin Elmer (Waltham, MA) Wizard2 2480 automatic gamma counter.

Regarding `O=C(O)CCC[C@H](OC(=O)N[C@@H](CCCCNC(=O)[C@H](Cc1c2ccccc2cc2ccccc12)NC(=O)[C@H]1CC[C@H](CNC(=O)CCc2ccc(O)c(CN(CCN(CC(=O)O)Cc3cc(CCC(=O)O)ccc3O)CC(=O)O)c2)CC1)C(=O)O)C(=O)O.[68Ga]` [^68Ga-AR-113-1], the “Biodistribution, Adrenal (Avg)” value is given as 1.22 % ID/g; the “Biodistribution, Blood (Avg)” value is on record as 2.42 % ID/g; the “Biodistribution, Bone (Avg)” value stood at 0.34 % ID/g; the “Biodistribution, Brain (Avg)” value is recorded as 0.05 % ID/g. Also, the “Biodistribution, Fat (Avg)” value came out at 0.56 % ID/g; the “Biodistribution, Heart (Avg)” value is 0.85 % ID/g; the “Biodistribution, Intestine (Avg)” value was 1.36 % ID/g; the “Biodistribution, Kidney (Avg)” value was determined as 27.16 % ID/g. The “Biodistribution, LNCaP tumor (Avg)” value is listed as 11.86 % ID/g; the “Biodistribution, Lacrimal (Avg)” value is 0.13 % ID/g; the “Biodistribution, Liver (Avg)” value is 1.31 % ID/g; the “Biodistribution, Lungs (Avg)” value was 1.93 % ID/g. The “Biodistribution, Muscle (Avg)” value was 0.49 % ID/g; the “Biodistribution, Pancreas (Avg)” value came out at 0.34 % ID/g; the “Biodistribution, Salivary gland (Avg)” value worked out at 1.05 % ID/g; the “Biodistribution, Spleen (Avg)” value was 0.61 % ID/g. For the same molecule, the “Biodistribution, Stomach (Avg)” value worked out at 0.22 % ID/g; the “Biodistribution, Testes (Avg)” value is 0.79 % ID/g; the “Biodistribution, Urine (Avg)” value is listed as 237.55 % ID/g.

Take `O=C(O)CSCC(NC(=O)NC(CNC(=O)CNC(=O)C(Cc1c2ccccc2cc2ccccc12)NC(=O)C1CCC(CNC(=O)CN2CCN(CC(=O)O)CCN(CC(=O)O)CCN(CC(=O)O)CC2)CC1)C(=O)O)C(=O)O.[68Ga]` (stereo not drawn) [68Ga-CCZ01194]: the “Biodistribution, Adrenal (Avg)” value is 0.65 % ID/g; the “Biodistribution, Blood (Avg)” value was found to be 0.98 % ID/g; the “Biodistribution, Bone (Avg)” value came to 0.14 % ID/g; the “Biodistribution, Brain (Avg)” value was determined as 0.03 % ID/g. Also, the “Biodistribution, Fat (Avg)” value came out at 0.27 % ID/g; the “Biodistribution, Heart (Avg)” value was 0.27 % ID/g; the “Biodistribution, Intestine (Avg)” value was found to be 0.79 % ID/g; the “Biodistribution, Kidney (Avg)” value came out at 7.33 % ID/g. Moreover, the “Biodistribution, LNCaP tumor (Avg)” value is on record as 9.12 % ID/g; the “Biodistribution, Liver (Avg)” value stood at 0.35 % ID/g; the “Biodistribution, Lungs (Avg)” value is reported as 0.70 % ID/g; the “Biodistribution, Muscle (Avg)” value was 0.14 % ID/g. Besides, the “Biodistribution, Pancreas (Avg)” value is on record as 0.15 % ID/g; the “Biodistribution, Salivary gland (Avg)” value turned out to be 0.34 % ID/g; the “Biodistribution, Seminal (Avg)” value is recorded as 0.13 % ID/g; the “Biodistribution, Spleen (Avg)” value is 0.24 % ID/g. Moreover, the “Biodistribution, Stomach (Avg)” value is 0.09 % ID/g; the “Biodistribution, Testes (Avg)” value was found to be 0.23 % ID/g; the “Biodistribution, Thyroid (Avg)” value was found to be 0.29 % ID/g; the “Biodistribution, Urine (Avg)” value was 311.63 % ID/g.

In the case of `O=C(O)CCCC(NC(=O)NC(CNC(=O)CNC(=O)C(Cc1c2ccccc2cc2ccccc12)NC(=O)C1CCC(CNC(=O)CN2CCN(CC(=O)O)CCN(CC(=O)O)CCN(CC(=O)O)CC2)CC1)C(=O)O)C(=O)O.[68Ga]` (stereo not drawn) [68Ga-CCZ01198], the “Biodistribution, Adrenal (Avg)” value is 0.19 % ID/g; the “Biodistribution, Blood (Avg)” value came out at 0.43 % ID/g; the “Biodistribution, Bone (Avg)” value is given as 0.07 % ID/g; the “Biodistribution, Brain (Avg)” value is 0.01 % ID/g. Moreover, the “Biodistribution, Fat (Avg)” value stood at 0.07 % ID/g; the “Biodistribution, Heart (Avg)” value came out at 0.11 % ID/g; the “Biodistribution, Intestine (Avg)” value was 0.16 % ID/g; the “Biodistribution, Kidney (Avg)” value is recorded as 2.18 % ID/g. Also, the “Biodistribution, LNCaP tumor (Avg)” value is reported as 4.84 % ID/g; the “Biodistribution, Liver (Avg)” value came to 0.15 % ID/g; the “Biodistribution, Lungs (Avg)” value was 0.32 % ID/g; the “Biodistribution, Muscle (Avg)” value is listed as 0.07 % ID/g. Moreover, the “Biodistribution, Pancreas (Avg)” value is listed as 0.08 % ID/g; the “Biodistribution, Salivary gland (Avg)” value came to 0.12 % ID/g; the “Biodistribution, Seminal (Avg)” value turned out to be 0.47 % ID/g; the “Biodistribution, Spleen (Avg)” value is reported as 0.12 % ID/g. The “Biodistribution, Stomach (Avg)” value is 0.03 % ID/g; the “Biodistribution, Testes (Avg)” value came out at 0.14 % ID/g; the “Biodistribution, Thyroid (Avg)” value is recorded as 0.13 % ID/g; the “Biodistribution, Urine (Avg)” value worked out at 384.68 % ID/g.

With `O=C(O)CCCC(NC(=O)NC(COCCNC(=O)C(Cc1c2ccccc2cc2ccccc12)NC(=O)C1CCC(CNC(=O)CN2CCN(CC(=O)O)CCN(CC(=O)O)CCN(CC(=O)O)CC2)CC1)C(=O)O)C(=O)O.[68Ga]` (stereo not drawn) [^68Ga-CCZ02011], the “Biodistribution, Adrenal (Avg)” value is on record as 0.36 % ID/g; the “Biodistribution, Blood (Avg)” value was found to be 0.58 % ID/g; the “Biodistribution, Bone (Avg)” value was 0.15 % ID/g; the “Biodistribution, Brain (Avg)” value came out at 0.02 % ID/g. For the same molecule, the “Biodistribution, Fat (Avg)” value was 0.12 % ID/g; the “Biodistribution, Heart (Avg)” value is 0.18 % ID/g; the “Biodistribution, Intestine (Avg)” value stood at 0.40 % ID/g; the “Biodistribution, Kidney (Avg)” value stood at 4.10 % ID/g. Also, the “Biodistribution, LNCaP tumor (Avg)” value was 14.08 % ID/g; the “Biodistribution, Lacrimal (Avg)” value came out at 0.33 % ID/g; the “Biodistribution, Liver (Avg)” value was 0.27 % ID/g; the “Biodistribution, Lungs (Avg)” value was determined as 0.43 % ID/g. The “Biodistribution, Muscle (Avg)” value is listed as 0.15 % ID/g; the “Biodistribution, Pancreas (Avg)” value is 0.22 % ID/g; the “Biodistribution, Salivary gland (Avg)” value is given as 0.27 % ID/g; the “Biodistribution, Seminal (Avg)” value was 11.24 % ID/g. The “Biodistribution, Spleen (Avg)” value is listed as 0.23 % ID/g; the “Biodistribution, Stomach (Avg)” value is recorded as 0.07 % ID/g; the “Biodistribution, Testes (Avg)” value came to 0.51 % ID/g; the “Biodistribution, Thyroid (Avg)” value was 0.16 % ID/g. Further, the “Biodistribution, Urine (Avg)” value is 343.93 % ID/g.

In the case of `O=C(O)CCCC(NC(=O)NC(CCCONC(=O)C(Cc1c2ccccc2cc2ccccc12)NC(=O)C1CCC(CNC(=O)CN2CCN(CC(=O)O)CCN(CC(=O)O)CCN(CC(=O)O)CC2)CC1)C(=O)O)C(=O)O.[68Ga]` (stereo not drawn) [^68Ga-CCZ02018], the “Biodistribution, Adrenal (Avg)” value was found to be 0.53 % ID/g; the “Biodistribution, Blood (Avg)” value stood at 0.67 % ID/g; the “Biodistribution, Bone (Avg)” value came to 0.13 % ID/g; the “Biodistribution, Brain (Avg)” value turned out to be 0.03 % ID/g. Moreover, the “Biodistribution, Fat (Avg)” value was determined as 0.17 % ID/g; the “Biodistribution, Heart (Avg)” value stood at 0.18 % ID/g; the “Biodistribution, Intestine (Avg)” value is recorded as 0.25 % ID/g; the “Biodistribution, Kidney (Avg)” value amounted to 6.91 % ID/g. For the same molecule, the “Biodistribution, LNCaP tumor (Avg)” value is given as 18.88 % ID/g; the “Biodistribution, Liver (Avg)” value amounted to 0.21 % ID/g; the “Biodistribution, Lungs (Avg)” value turned out to be 0.58 % ID/g; the “Biodistribution, Muscle (Avg)” value was 0.10 % ID/g. The “Biodistribution, Pancreas (Avg)” value turned out to be 0.13 % ID/g; the “Biodistribution, Salivary gland (Avg)” value is listed as 0.22 % ID/g; the “Biodistribution, Seminal (Avg)” value is listed as 0.27 % ID/g; the “Biodistribution, Spleen (Avg)” value is 0.24 % ID/g. Also, the “Biodistribution, Stomach (Avg)” value was determined as 0.07 % ID/g; the “Biodistribution, Testes (Avg)” value was found to be 0.22 % ID/g; the “Biodistribution, Thyroid (Avg)” value was 0.20 % ID/g; the “Biodistribution, Urine (Avg)” value was determined as 613.72 % ID/g.

Consider `O=C(O)CSCC(NC(=O)NC(Cc1cn(CCNC(=O)C(Cc2c3ccccc3cc3ccccc23)NC(=O)C2CCC(CNC(=O)CN3CCN(CC(=O)O)CCN(CC(=O)O)CCN(CC(=O)O)CC3)CC2)nn1)C(=O)O)C(=O)O.[68Ga]` (stereo not drawn) [^68Ga-CCZ01186], for which the “Biodistribution, Adrenal (Avg)” value was 0.29 % ID/g; the “Biodistribution, Blood (Avg)” value was 0.72 % ID/g; the “Biodistribution, Bone (Avg)” value stood at 0.13 % ID/g; the “Biodistribution, Brain (Avg)” value was determined as 0.02 % ID/g. In addition, the “Biodistribution, Fat (Avg)” value amounted to 0.16 % ID/g; the “Biodistribution, Heart (Avg)” value is 0.57 % ID/g; the “Biodistribution, Intestine (Avg)” value stood at 0.08 % ID/g; the “Biodistribution, Kidney (Avg)” value amounted to 2.20 % ID/g. The “Biodistribution, LNCaP tumor (Avg)” value is 0.89 % ID/g; the “Biodistribution, Liver (Avg)” value stood at 0.23 % ID/g; the “Biodistribution, Lungs (Avg)” value is reported as 0.21 % ID/g; the “Biodistribution, Muscle (Avg)” value is 0.23 % ID/g. Also, the “Biodistribution, Pancreas (Avg)” value worked out at 0.16 % ID/g; the “Biodistribution, Salivary gland (Avg)” value came to 0.40 % ID/g; the “Biodistribution, Seminal (Avg)” value was determined as 6.65 % ID/g; the “Biodistribution, Spleen (Avg)” value is reported as 0.34 % ID/g. The “Biodistribution, Stomach (Avg)” value is 0.14 % ID/g; the “Biodistribution, Testes (Avg)” value came out at 0.17 % ID/g; the “Biodistribution, Thyroid (Avg)” value was found to be 2.49 % ID/g; the “Biodistribution, Urine (Avg)” value is 439.81 % ID/g.
